According to patent publication US20070275953A1 (priority 2003, published 2007):
Like-named read-outs stand apart in the source and are kept apart here.

Legend:
Format in all cases: cell-based
[1] = system: HIV-1 mutant Asn103/Ile108RT in P4 cells; assay: Anti-HIV assay on P4 cells, Asn103/Ile108RT double mutant
Text: (§1) In order to introduce mutation(s) at the level of the pol gene coding for the RT in the pNL4-3 plasmid containing the complete viral genome (Adachi et al., 1986. J. Virol., Vol. 59 p 284-291) we used the “Quick change mutagenesis kit” (Stratagene). The following mutations were separately introduced in pNL4-3: L100I, K103N, V108I, Y181C, Y188C, and the double mutations K103N/V108I. These mutations were chosen because of the resistance that they confer to existing NNRTI. The production procedure of the mutant viral stocks is identical to the one described above.
Anti-HIV activity and cytotoxicity of the compounds were tested on a P4 cell line. The P4 cell line (Clavel & Charneau, 1994. J. Virol., Vol. 68 p 1179-1185) was provided by Dr. François Clavel (Unité de recherche antivirale de l'hôpital Xavier Bichat Paris: Inserm). The P4 cells were cultured in complete DMEM medium supplemented with 10% fetal bovine serum (FBS), 0.5% of Penicillin/Streptomycin and G418 at 0.5 mg/ml. Exponentially growing cells were trypsinized, centrifuged and split twice weekly at 5.10^4 cells/ml.
The P4 cells are HIV-infectible Hela-CD4 cells that carry the bacterial lacZ gene under the control of the HIV-1 long terminal repeat (LTR). In this cell line, transcription of the LacZ gene is driven by the HIV-1 LTR. As such, the cytoplasmic accumulation of β-galactosidase is strictly dependent on the presence of the HIV transactivator Tat produced during the intracellular viral replication (Clavel & Charneau, 1994. J. Virol., Vol. 68, p. 1179-1185). In other words, in this system, the expression level of the β-galactosidase gene is proportional to the viral replication.
(§2) Briefly, in the anti-HIV assay 100 Ål of P4 cells were plated in 96-well plate at a concentration of 0.4 10^5 cells/ml and incubated at 37° C., 5% CO2. After 48 h, the medium was removed and 100 Ål of the different drugs dilutions were added to the cells. Four hours after the addition of the drugs all cells were infected with equal amount of cell-free virus, corresponding to 100 ng of HIV p24 antigen. After 48 h of incubation at 37° C., 5% CO2, β-galactosidase activity was measured using chlorophenol red-β-D-galactopyranoside assays.
The absorbance was measured on a Benchmark™ Microplate Reader (Biorad) (λ=570 nm) and compared with 12 cell control replicates (no virus or drug added) and 12 virus control wells (no drug added). Each assay was performed a minimum of three times. The 50% effective concentration (Ec50) was calculated from each dose response curve using the CurveExpert 1.3 software. As Nevirapine activity corresponds to its published values (10-100 nM), the data are consistent with other measures of viral replication.

[2] = system: HIV-1 mutant Ile100RT in TZM-bl cells; assay: Anti-HIV assay on TZM-bl cells, Ile100RT mutant; details: read-out: EC50 Ile100RT TZM-bl
Text: as §1
Anti-HIV activity and cytotoxicity of the compounds were tested on the TZM-b1 cell line. The TZM-b1 cell line (Wei et al. 2002. Antimicrob. Agents Chemother. Vol. 46, p 1896-1905) was received from the NIH AIDS Research and Reference Reagent Program. These cells were cultured in complete DMEM medium supplemented with 10% fetal bovine serum (FBS), and 1% Penicillin/Streptomycin. Exponentially growing cells were trypsinized, centrifuged and split twice weekly at 5 10^4 cells/ml.
The anti-HIV assay with TZM-b1 cells is essentially the same as described above with P4 cells. The main difference between the two cell lines is that the TZM-b1 cells express at their surface both the CD4 and CCR5 proteins, acting as receptor and co-receptor for HIV entry, respectively (Wei et al. 2002. Antimicrob. Agents Chemother. Vol. 46, p 1896-1905). This feature makes the cells very sensitive to infection by the virus. The TMZ-b1 cells were infected with equal amount of cell-free virus, corresponding to 10 ng of HIV p24 antigen. This amount is ten times lower than the amount used to infect the P4 cells.

[3] = system: HIV-1 with WT (wild type) RT in P4 cells; assay: Anti-HIV assay on P4 cell line, WT RT; details: for EC50 / SI (selectivity index = CC50/EC50): P4 cell line, WT RT; for EC50: read-out: EC50 WT
Protocol: For the antiviral and the cytotoxicity assays, the drugs were diluted in complete DMEM medium. In these experiments, drugs were diluted in triplicate wells in a 96-well plate in six, 5 fold serial dilutions.
Two days later, co-cultivation with SupT1 cells (a human T-cell lymphoma cell line) was initiated to facilitate rapid production of progeny virions. Production of virus was measured by using the Innotest HIV Antigen mAb p24 kit (Innogenetics). At the peak of production cultures were harvested and filtered. The virus stocks were stored at −80° C. until used.
Anti-HIV activity and cytotoxicity of the compounds were tested on a P4 cell line. […] The P4 cells were cultured in complete DMEM medium supplemented with 10% fetal bovine serum (FBS), 0.5% of Penicillin/Streptomycin and G418 at 0.5 mg/ml. Exponentially growing cells were trypsinized, centrifuged and split twice weekly at 5.10^4 cells/ml.
The P4 cells are HIV-infectible Hela-CD4 cells that carry the bacterial lacZ gene under the control of the HIV-1 long terminal repeat (LTR). In this cell line, transcription of the LacZ gene is driven by the HIV-1 LTR. […] In other words, in this system, the expression level of the β-galactosidase gene is proportional to the viral replication.
as §2
Each assay was performed a minimum of three times. The 50% effective concentration (Ec50) was calculated from each dose response curve using the CurveExpert 1.3 software.

[4] = Human immunodeficiency virus 1, read-out: EC50 Asn103/Ile108RT F4
[5] = Human immunodeficiency virus 1, TZM-bl
[6] = column head prints F4, double mutant Asn103/Ile108RT, read-out: EC50 Asn103/Ile108RT F4

O=C1Nc2ccc(Cl)cc2[C@@](C#CC2CC2)(C(F)(F)F)O1 [Efavirenz, reference compound]
EC50 [1, 4]: 9 nM
EC50 [2, 5]: 17 nM
EC50 ([3]; Human immunodeficiency virus 1): < 1 nM

CCc1c(C)[nH]c(=O)c(C)c1OC1CC(C)CC(C)C1 (centres unmarked) [Z154]
EC50 [1, 6]: 88 nM
EC50 ([2]; TZM-bl, mutant Ile100RT): 40 nM
EC50 [3]: < 1 nM

CCc1c(C)[nH]c(=O)c([N+](=O)[O-])c1OC1CC(C)CC(C)C1 (centres unmarked) [Z91inv, 3-nitro-5-ethyl-6-methyl-4-[(3,5-dimethylcyclohexyl)oxy]pyridine-2(1H)-one]
EC50 [1, 4]: 180 nM
EC50 [2, 5]: 2 nM
EC50 ([3]; Human immunodeficiency virus 1): < 1 nM
SI (selectivity index = CC50/EC50) [3]: >37200

CCc1c(C)[nH]c(=O)c(CO)c1OC1CC(C)CC(C)C1 (centres unmarked) [Z45inv]
EC50 [1, 6]: 19200 nM
EC50 ([2]; TZM-bl, mutant Ile100RT): 382 nM
EC50 [3]: 23 nM

CCc1c(C)[nH]c(=O)c(N(C)C)c1OC1CC(C)CC(C)C1 (centres unmarked) [Z150, 3-(dimethylamino)-5-ethyl-6-methyl-4-[(3,5-dimethylcyclohexyl)oxy]pyridine-2(1H)-one]
EC50 [1, 4]: 27 nM
EC50 [2, 5]: 20 nM
EC50 ([3]; Human immunodeficiency virus 1): < 1 nM
SI (selectivity index = CC50/EC50) [3]: >66000

CCc1c(C)[nH]c(=O)c(CSC(C)=O)c1OC1CC(C)CC(C)C1 (centres unmarked) [Z114]
EC50 [1, 6]: 1930 nM
EC50 ([2]; TZM-bl, mutant Ile100RT): 77 nM
EC50 [3]: 7 nM

CCOC(=O)c1c(OC2CC(C)CC(C)C2)c(CC)c(C)[nH]c1=O (single isomer, unassigned) [Z37inv]
antiviral activity compared with Z37A or the mixture of stereoisomers [3]: higher than the activity observed for either Z37A or the mixture of stereoisomers
EC50 [3]: 36 nM

CCc1c(C)[nH]c(=O)c(CN=[N+]=[N-])c1OC1CC(C)CC(C)C1 (centres unmarked) [Z153]
EC50 [1, 6]: 70 nM
EC50 ([2]; TZM-bl, mutant Ile100RT): 29 nM
EC50 [3]: < 1 nM

Cc1ccnc2c1NC(=O)c1cccnc1N2C1CC1 [Nevirapine, reference compound]
EC50 [1, 4]: 6250 nM
EC50 [2, 5]: 50 nM
EC50 ([3]; Human immunodeficiency virus 1): 29 nM
SI (selectivity index = CC50/EC50) [3]: 3448
